Measurements: ChEMBL document CHEMBL1201862, “PubChem BioAssay data set” (2004)
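Cells were grown in 96-well plates and exposed to each compound for 48 hours at five concentrations; endpoints were interpolated linearly between bracketing concentrations, or set to the highest concentration if not reached. GI50 marks 50% less growth.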 The source made the active and inactive calls. No stated cut-off is given here; in the data, active = GI50 up to about 1.1 µM and inactive = higher.

Columns and labels:
Assay in all cases: NCI tumour cell line growth inhibition, 48 h
SK-MEL-28 = test system: SK-MEL-28
IGROV-1 = test system: IGROV-1
ACHN = test system: ACHN
SF-295 = test system: SF-295
K562 = test system: K562
RXF 393 = test system: RXF 393
A549 = test system: A549
SN12C = test system: SN12C
MDA-N = test system: MDA-N
DU-145 = test system: DU-145
OVCAR-8 = test system: OVCAR-8
OVCAR-4 = test system: OVCAR-4
M14 = test system: M14
MDA-MB-231 = test system: MDA-MB-231
NCI-H460 = test system: NCI-H460
A498 = test system: A498
NCI/ADR-RES = test system: NCI/ADR-RES
T47D = test system: T47D
HOP-92 = test system: HOP-92
SR = test system: SR

Measured: GI50

CCCCC(Sc1cc(Cl)c(C)cc1S(=O)(=O)Nc1nc(N)n[nH]1)C(=O)OC (centres undefined)
inactive: SK-MEL-28 > 10 µM | IGROV-1 > 10 µM | ACHN > 10 µM | SF-295 > 10 µM | K562 > 10 µM | RXF 393 > 10 µM | A549 > 10 µM | SN12C > 10 µM | MDA-N > 10 µM | DU-145 > 10 µM | OVCAR-8 > 10 µM | OVCAR-4 > 10 µM | M14 > 10 µM | MDA-MB-231 > 10 µM | NCI-H460 > 10 µM | A498 > 10 µM | NCI/ADR-RES > 10 µM | T47D > 10 µM

CC(C)CCNC(=O)c1ccc(CNC(=O)/C=C/c2csc(-c3ccccc3)n2)cc1
inactive: SK-MEL-28 57.7 µM | IGROV-1 34.2 µM | ACHN 52.7 µM | SF-295 33.9 µM | K562 > 100 µM | RXF 393 17.3 µM | A549 40.1 µM | SN12C 64.3 µM | MDA-N > 100 µM | DU-145 > 100 µM | OVCAR-8 25.8 µM | OVCAR-4 14.5 µM | M14 > 100 µM | MDA-MB-231 33 µM | NCI-H460 > 100 µM | A498 19.9 µM | NCI/ADR-RES 36.9 µM | HOP-92 27.7 µM | T47D 33.2 µM

CC(=O)Nc1ccc(N2C(=O)CS(=O)(=O)C2c2cccc(Oc3ccccc3)c2)cc1 (centres undefined)
inactive: SK-MEL-28 21.9 µM | ACHN 16.6 µM | SF-295 17 µM | K562 18.8 µM | RXF 393 18.9 µM | A549 20 µM | SN12C 15.1 µM | MDA-N 16.8 µM | DU-145 33.7 µM | OVCAR-8 16.7 µM | SR 20.3 µM | OVCAR-4 14.2 µM | M14 18 µM | MDA-MB-231 17.4 µM | NCI-H460 17.8 µM | NCI/ADR-RES 17.6 µM | HOP-92 13.8 µM | T47D 15.9 µM

Cc1ccc(C(=O)Nc2ccc(CP(=O)(O)O)cc2)cc1NC(=O)Nc1cc(C(=O)Nc2ccc(CP(=O)(O)O)cc2)ccc1C
inactive: SK-MEL-28 > 100 µM | IGROV-1 > 100 µM | SF-295 > 100 µM | RXF 393 > 100 µM | A549 > 100 µM | SN12C > 100 µM | MDA-N > 100 µM | DU-145 > 100 µM | OVCAR-8 > 100 µM | OVCAR-4 > 100 µM | M14 > 100 µM | MDA-MB-231 > 100 µM | NCI-H460 > 100 µM | A498 > 100 µM | NCI/ADR-RES > 100 µM | T47D > 100 µM

CCOC(=O)c1cc2ncccc2c2ccccc12
inactive: SK-MEL-28 > 100 µM | IGROV-1 > 100 µM | ACHN > 100 µM | SF-295 > 100 µM | K562 > 100 µM | RXF 393 > 100 µM | A549 > 100 µM | SN12C > 100 µM | MDA-N > 100 µM | DU-145 > 100 µM | OVCAR-8 > 100 µM | SR > 100 µM | OVCAR-4 > 100 µM | M14 > 100 µM | MDA-MB-231 > 100 µM | NCI-H460 > 100 µM | NCI/ADR-RES > 100 µM | HOP-92 > 100 µM | T47D > 100 µM

Fc1ccc(C(OCCN2CCC3CCC(C2)N3C/C=C/c2cccs2)c2ccc(F)cc2)cc1 (centres undefined)
inactive: SK-MEL-28 6.47 µM | IGROV-1 10.1 µM | ACHN 11.8 µM | SF-295 10.5 µM | RXF 393 3.77 µM | A549 11 µM | SN12C 5.69 µM | MDA-N 10.3 µM | DU-145 12.3 µM | OVCAR-8 4.06 µM | OVCAR-4 7.36 µM | M14 4.25 µM | MDA-MB-231 9.31 µM | NCI-H460 3.08 µM | A498 9.06 µM | NCI/ADR-RES 6.24 µM | HOP-92 6.25 µM | T47D 3.56 µM

COc1ccc(C2SC(=N)Nc3c2c(C)nn3C(=O)c2ccncc2)cc1OC (centres undefined)
inactive: SK-MEL-28 > 10 µM | IGROV-1 > 10 µM | ACHN > 10 µM | SF-295 > 10 µM | K562 > 10 µM | RXF 393 > 10 µM | A549 > 10 µM | SN12C > 10 µM | MDA-N > 10 µM | DU-145 > 10 µM | OVCAR-8 > 10 µM | SR > 10 µM | OVCAR-4 > 10 µM | M14 > 10 µM | MDA-MB-231 > 10 µM | NCI-H460 > 10 µM | NCI/ADR-RES > 10 µM | HOP-92 > 10 µM | T47D > 10 µM

C=C1C(=O)O[C@@H]2C[C@@]3(C)CC(=O)C=C(C)[C@@H]3C[C@H]12
inactive: SK-MEL-28 5.73 µM | IGROV-1 13.3 µM | ACHN 2.69 µM | SF-295 33.1 µM | RXF 393 3.94 µM | A549 29.6 µM | SN12C 11.1 µM | MDA-N 3.74 µM | DU-145 4.29 µM | OVCAR-8 15 µM | OVCAR-4 9.1 µM | M14 13.5 µM | MDA-MB-231 16.9 µM | A498 > 10 µM | NCI/ADR-RES 11.3 µM | HOP-92 16.3 µM | T47D 11.2 µM

CC(C)N1C=[N+](C(C)C)CC1
inactive: SK-MEL-28 > 100 µM | IGROV-1 > 100 µM | ACHN > 100 µM | SF-295 > 100 µM | K562 > 100 µM | RXF 393 > 100 µM | A549 > 100 µM | SN12C > 100 µM | MDA-N > 100 µM | DU-145 > 100 µM | OVCAR-8 > 100 µM | OVCAR-4 > 100 µM | M14 > 100 µM | MDA-MB-231 > 100 µM | NCI-H460 > 100 µM | A498 > 100 µM | NCI/ADR-RES > 100 µM | HOP-92 > 100 µM | T47D > 100 µM

C=CCN1C(=O)N/C(=C\c2ccc(Cl)cc2)C1=O
inactive: SK-MEL-28 > 100 µM | IGROV-1 > 100 µM | ACHN > 100 µM | SF-295 > 100 µM | K562 > 100 µM | RXF 393 > 100 µM | A549 83.9 µM | SN12C > 100 µM | MDA-N > 100 µM | DU-145 > 100 µM | OVCAR-8 > 100 µM | OVCAR-4 > 100 µM | M14 > 100 µM | MDA-MB-231 > 100 µM | NCI-H460 > 100 µM | A498 22.6 µM | NCI/ADR-RES > 100 µM | HOP-92 > 100 µM | T47D > 100 µM

CCOc1ccc(/C=N/[N+](C)(C)C)cc1OCC
inactive: SK-MEL-28 > 10 µM | IGROV-1 > 10 µM | ACHN > 10 µM | SF-295 > 10 µM | K562 > 10 µM | A549 > 10 µM | SN12C > 10 µM | MDA-N > 10 µM | DU-145 > 10 µM | OVCAR-8 > 10 µM | SR > 10 µM | OVCAR-4 > 10 µM | M14 > 10 µM | MDA-MB-231 > 10 µM | NCI/ADR-RES > 10 µM | HOP-92 > 10 µM | T47D > 10 µM
